Assay results from patent US20190093170A1, “USE OF TRANSLATIONAL PROFILING TO IDENTIFY TARGET MOLECULES FOR THERAPEUTIC TREATMENT” (THE REGENTS OF THE UNIVERSITY OF CALIFORNIA, priority 2013, published 2019).

Tested on: Pten^L/L prostate cancer mouse model
Experiment: Pharmacological treatment of Pten^L/L mice (preclinical trial; IHC, immunofluorescence, histology, MRI, lymph node metastasis)
Assay type: in vivo
Conditions: 28 days, RAD001 10 mg/kg daily
Source text: Weight measurements were taken every 3 days to monitor for toxicity. For the 28-day study, mice were imaged via MRI at day 0 and day 28 in a 14-T GE MR scanner (GE Healthcare).
Whole mouse prostates were removed from wild-type and Pten^L/L mice, microdissected, and frozen in liquid nitrogen. Frozen tissues were subsequently manually disassociated using a biopulverizer (Biospec) and additionally processed for protein and mRNA analysis as described above.
Prostates and lymph nodes were dissected from mice within 2 hr of the indicated treatment and fixed in 10% formalin overnight at 4° C. Tissues were subsequently dehydrated in ethanol (Sigma) at room temperature, mounted into paraffin blocks, and sectioned at 5 μm. Specimens were de-paraffinized and rehydrated using CitriSolv (Fisher) followed by serial ethanol washes. […] Sections were washed in distilled water followed by TBS washes. The sections were then incubated in 5% goat serum, 1% BSA in TBS for 1 hr at room temperature. Various primary antibodies were used, including those specific for keratin 5 (Covance), cytokeratin 8 (Abcam and Covance), YB1 (Abcam), vimentin (Abcam), MTA1 (Cell signaling), CD44 (BD Pharmingen), and the androgen receptor (Epitomics), which were diluted 1:50-1:500 in blocking solution and incubated on sections overnight at 4° C. Specimens were then washed in TBS and incubated with the appropriate Alexa 488 and 594 labeled secondary (Invitrogen) at 1:500 for 2 hr at room temperature, with the exception of YB1 which was incubated with biotinylated anti-rabbit secondary (Vector) followed by incubation with Alexa 594 labeled Streptavidin (Invitrogen). A final set of washes in TBS was completed at room temperature followed by mounting with DAPI Hardset Mounting Medium (Vector Lab). A Zeiss Spinning Disc confocal (Zeiss, CSU-X1) was used to image the sections at 40×-100×. Individual prostate cells were quantified for mean fluorescence intensity (m.f.i.) using the Axiovision (Zeiss, Release 4.8) densitometric tool.
Mouse lymph nodes were processed as described above and stained for CK8 and androgen receptor. Lymph nodes were imaged using a Zeiss AX10 microscope. Metastases were identified and areas were measured using the Axiovision (Zeiss, Release 4.8) measurement tool.
Immunohistochemistry was performed as described above (see “Immunofluorescence”) with the exception that immediately after antigen […] and TBS washes, specimens were incubated in 3% hydrogen peroxide in TBS followed by TBS washes. The following primary antibodies were used: phospho-AKT^S473 (Cell Signaling), phospho-rpS6^S240/244 (Cell Signaling), phospho-4EBP1^T37/46 (Cell Signaling), phospho-histone H3 (Upstate), and cleaved caspase (Cell Signaling). […] The protein of interest was detected using DAB (Sigma). […]

[1] = ATP site inhibitor of mTOR 1 mg/kg daily

## CO[C@H]1C[C@@H]2CC[C@@H](C)[C@@](O)(O2)C(=O)C(=O)N2CCCC[C@H]2C(=O)O[C@H]([C@H](C)C[C@@H]2CC[C@@H](OCCO)[C@H](OC)C2)CC(=O)[C@H](C)/C=C(\C)[C@@H](O)[C@@H](OC)C(=O)[C@H](C)C[C@H](C)/C=C/C=C/C=C/1C [RAD001]
[1]
  4EBP1 and p70S6K1/2 phosphorylation: only decreased p70S6K1/2 phosphorylation levels
  apoptosis (cleaved caspase 3): no significant effect
  proliferation (phospho-histone H3): limited decrease in cell proliferation
  regression of PIN lesions: only partial regression of PIN lesions
